The record followed here is patent publication US6171809A, “Method and compositions for detecting luciferase biological samples” (priority 1998, dated 2001).

Experiment [1] concerns the target T1, human beta-2 adrenoceptor (Homo sapiens, UniProt P07550).
T1 construct: expressed in transfected cells; host or cells: CHO (Chinese hamster ovary) cells stably carrying a CRE-renilla luciferase reporter
As to the kind of experiment: Compound screening, renilla luciferase readout, CRE/firefly/V2 and CRE/ren/beta2 cells, beta2-adrenoceptor, Example 3. The format is cell-based. On the procedure: (§1) Stable mammalian cell lines transfected with c-AMP responsive reporter genes containing either the firefly or renilla luciferase reporter proteins (CRE-firefly and CRE-ren) were generated.
(§2) These receptors are members of the super family of G-protein coupled receptors which interact with the stimulatory G-protein alpha unit.
Firefly luciferase and/or renilla luciferase producing CHO (Chinese hamster ovary) cells are cultured in tissue culture flasks and grown to 90% confluency. Twenty-four hours before the assay, the cells are quiesced in serum-free medium containing 1 mg/ml BSA (bovine serum albumin). Immediately prior to the assay, cells are removed with HBSS/EDTA (Hanks balanced salt solution containing EDTA), centrifuged and resuspended in 10 ml phenol red-free and serum-free medium supplemented with 1 mg/ml BSA. Next, the cells are plated into a 96 well microtiter plate at 90 μl/well and returned to the incubator. After 1 hour, 10 μl of the test compound, made up in either water or phenol red-free medium, is added. The microplates then are further incubated for 4 hours. Finally, the firefly luciferase detection reagent is made up and 100 μl of this detection solution is added to each well. After 10 minutes, the microplate is counted for firefly luciferase activity. […] The plate is left for 15 minutes in the dark and then counted for renilla luciferase activity. […]

Experiment [2] deals with adenylcyclase. In words: Forskolin dose response, firefly luciferase reporter (CRE-firefly CHO cells mixed with CRE-ren cells), Example 1. The note with it: 15 and 160 minutes after reagent addition; FIG. 1. Format: cell-based, Chinese hamster ovary. The procedure: A kit for the sequential detection of firefly luciferase and renilla luciferase was prepared which consisted of a firefly luciferase assay reagent and a renilla luciferase assay reagent. The firefly luciferase reagent consisted of AMP, EDTA, firefly luciferin, ATP, DTT, phenylacetic acid and oxalic acid as originally described in U.S. Pat. No. 5,618,682. Stable mammalian cell lines transfected with c-AMP responsive reporter genes containing either the firefly or renilla luciferase reporter proteins (CRE-firefly and CRE-ren) were generated. Firefly luciferase and/or renilla luciferase producing CHO (Chinese hamster ovary) cells are cultured in tissue culture flasks and grown to 90% confluency. Twenty-four hours before the assay, the cells are quiesced in serum-free medium containing 1 mg/ml BSA (bovine serum albumin). […] After 10 minutes, the microplate is counted for firefly luciferase activity. […] The plate is left for 15 minutes in the dark and then counted for renilla luciferase activity. […] The assay plates were counted in a TopCount™ Luminescence Counter (Packard Instrument Company) at 15 or 160 minutes after reagent addition. […] Furthermore, renilla luminescence generated using the composition of this invention, is 10-fold brighter than the firefly luciferase generated light signal.

Experiment [3] has as its system CHO cells. As to the kind of experiment: Compound screening, endogenous response of CHO cells (CRE/firefly/V2 and CRE/ren/beta2), Example 3. The following applies: for firefly luciferase response (endogenous): firefly luciferase detection reagent; for agonist activity at these cells: CRE/firefly/V2 and CRE/ren/beta2 cells. The format is cell-based, Chinese hamster ovary. On the procedure:
as §1, §2
Firefly luciferase and/or renilla luciferase producing CHO (Chinese hamster ovary) cells are cultured in tissue culture flasks and grown to 90% confluency. Twenty-four hours before the assay, the cells are quiesced in serum-free medium containing 1 mg/ml BSA (bovine serum albumin). Immediately prior to the assay, cells are removed with HBSS/EDTA (Hanks balanced salt solution containing EDTA), centrifuged and resuspended in 10 ml phenol red-free and serum-free medium supplemented with 1 mg/ml BSA. Next, the cells are plated into a 96 well microtiter plate at 90 μl/well and returned to the incubator. After 1 hour, 10 μl of the test compound, made up in either water or phenol red-free medium, is added. The microplates then are further incubated for 4 hours. Finally, the firefly luciferase detection reagent is made up and 100 μl of this detection solution is added to each well. After 10 minutes, the microplate is counted for firefly luciferase activity. Next, to each well, 100 μl/well of 5 μM of coelenterazine in 2 mM EDTA buffer solution is added. The plate is left for 15 minutes in the dark and then counted for renilla luciferase activity.
CRE/firefly/V2 and CRE/ren/beta2 cells were mixed and plated into individual wells of a black 96-well ViewPlate and a range of compounds were applied to the cells.

The test system of experiment [4] is adenylcyclase. As to the kind of experiment: Forskolin dose response, renilla luciferase reporter (CRE-ren CHO cells mixed with CRE-firefly cells), Example 1. The format is cell-based, Chinese hamster ovary. On the procedure:
A kit for the sequential detection of firefly luciferase and renilla luciferase was prepared which consisted of a firefly luciferase assay reagent and a renilla luciferase assay reagent. The renilla luciferase reagent consisted of 5 μM of coelenterazine in 2 mM EDTA buffer with a pH 7.5. Stable mammalian cell lines transfected with c-AMP responsive reporter genes containing either the firefly or renilla luciferase reporter proteins (CRE-firefly and CRE-ren) were generated. Firefly luciferase and/or renilla luciferase producing CHO (Chinese hamster ovary) cells are cultured in tissue culture flasks and grown to 90% confluency. Twenty-four hours before the assay, the cells are quiesced in serum-free medium containing 1 mg/ml BSA (bovine serum albumin). Immediately prior to the assay, cells are removed with HBSS/EDTA (Hanks balanced salt solution containing EDTA), centrifuged and resuspended in 10 ml phenol red-free and serum-free medium supplemented with 1 mg/ml BSA. Next, the cells are plated into a 96 well microtiter plate at 90 μl/well and returned to the incubator. After 1 hour, 10 μl of the test compound, made up in either water or phenol red-free medium, is added. The microplates then are further incubated for 4 hours. Finally, the firefly luciferase detection reagent is made up and 100 μl of this detection solution is added to each well. After 10 minutes, the microplate is counted for firefly luciferase activity. Next, to each well, 100 μl/well of 5 μM of coelenterazine in 2 mM EDTA buffer solution is added. The plate is left for 15 minutes in the dark and then counted for renilla luciferase activity. CRE-ren cells were stimulated with 10 μM forskolin, a compound which directly activates adenylcyclase to cause an increase in the level of […] cAMP. […] The assay plates were counted in a TopCount™ Luminescence Counter (Packard Instrument Company) at 15 or 160 minutes after reagent addition. […] Furthermore, renilla luminescence generated using the composition of this invention, is 10-fold brighter than the firefly luciferase generated light signal.

Experiment [5] addresses T1, human beta-2 adrenoceptor. As to the kind of experiment: beta2-adrenoceptor dose response, renilla luciferase readout after renilla detection reagent (CRE/ren/beta2 cells mixed with CRE/firefly/V2 cells), Example 2. Format: cell-based. The procedure:
as §1, §2
Firefly luciferase and/or renilla luciferase producing CHO (Chinese hamster ovary) cells are cultured in tissue culture flasks and grown to 90% confluency. Twenty-four hours before the assay, the cells are quiesced in serum-free medium containing 1 mg/ml BSA (bovine serum albumin). Immediately prior to the assay, cells are removed with HBSS/EDTA (Hanks balanced salt solution containing EDTA), centrifuged and resuspended in 10 ml phenol red-free and serum-free medium supplemented with 1 mg/ml BSA. Next, the cells are plated into a 96 well microtiter plate at 90 μl/well and returned to the incubator. After 1 hour, 10 μl of the test compound, made up in either water or phenol red-free medium, is added. The microplates then are further incubated for 4 hours. Finally, the firefly luciferase detection reagent is made up and 100 μl of this detection solution is added to each well. After 10 minutes, the microplate is counted for firefly luciferase activity. […] The plate is left for 15 minutes in the dark and then counted for renilla luciferase activity.

Where no end group is shown, it is not given here.

T1 sequence (P07550 whole entry): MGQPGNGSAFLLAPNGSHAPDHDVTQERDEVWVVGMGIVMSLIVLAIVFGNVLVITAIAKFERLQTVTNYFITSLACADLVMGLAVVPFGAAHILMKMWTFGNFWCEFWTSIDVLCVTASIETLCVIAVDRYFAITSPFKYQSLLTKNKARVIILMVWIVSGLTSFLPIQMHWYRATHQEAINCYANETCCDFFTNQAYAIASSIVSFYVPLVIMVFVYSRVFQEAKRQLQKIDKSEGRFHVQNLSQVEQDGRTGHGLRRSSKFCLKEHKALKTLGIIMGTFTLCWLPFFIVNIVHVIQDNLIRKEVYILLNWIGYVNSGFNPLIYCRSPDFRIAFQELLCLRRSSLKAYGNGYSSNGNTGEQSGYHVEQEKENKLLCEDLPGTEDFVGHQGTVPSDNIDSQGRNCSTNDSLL

In the case of `NC(=O)CC[C@@H]1NC(=O)[C@H](Cc2ccccc2)NC(=O)[C@H](Cc2ccc(O)cc2)NC(=O)CCSSC[C@@H](C(=O)N2CCC[C@H]2C(=O)N[C@H](CCCN=C(N)N)C(=O)NCC(N)=O)NC(=O)[C@H](CC(N)=O)NC1=O` [desmopressin], the “luminescence signal following addition of renilla luciferase detection reagent” value in experiment [1] was “not significantly above basal”.
On to `C=C[C@@]1(C)CC(=O)[C@]2(O)[C@@]3(C)[C@@H](O)CCC(C)(C)[C@@H]3[C@H](O)[C@H](OC(C)=O)[C@@]2(C)O1` [forskolin], for which the “nature of the firefly luminescence” value in experiment [2] is “identical at 15 and 160 minutes after reagent addition”. Also, in experiment [3], the “action on CHO cells (conclusion)” value is “act on CHO cells to generate an endogenous response”, the “firefly luciferase response (endogenous)” value is listed as “a firefly luciferase response was obtained” and the “luminescent signal following addition of renilla luciferase detection reagent (endogenous)” value was “A luminescent signal was maintained”. Also, the “renilla luciferase luminometric response” value in experiment [4] (15 minutes after reagent addition) was 3.5×10^6. Besides, the “renilla luciferase luminometric response” value in experiment [4] (160 minutes after reagent addition) is reported as 1.8×10^6. The “EC50 for forskolin stimulation of adenyl cyclase” value in experiment [4] (renilla response, 15 versus 160 minutes) is reported as “remains similar”.
On to `CC(C)C[C@H](NC(=O)[C@H](CCCCN)NC(=O)[C@H](CCCN=C(N)N)NC(=O)[C@H](C)NC(=O)[C@H](CO)NC(=O)[C@H](CCCCN)NC(=O)[C@H](CCCN=C(N)N)NC(=O)[C@H](C)NC(=O)CNC(=O)[C@@H](NC(=O)[C@H](Cc1ccccc1)NC(=O)CNC(=O)CNC(=O)[C@@H](N)Cc1ccccc1)[C@@H](C)O)C(=O)N[C@@H](C)C(=O)N[C@@H](CC(N)=O)C(=O)N[C@@H](CCC(N)=O)C(=O)O` [nociceptin], for which the “agonist activity at these cells” value in experiment [3] is on record as “not agonists active at these cells”.
With `NCCc1c[nH]c2ccc(O)cc12` [serotonin], the “agonist activity at these cells” value in experiment [3] was “not agonists active at these cells”.
Consider `NC(=O)CC[C@@H]1NC(=O)[C@H](Cc2ccccc2)NC(=O)[C@H](Cc2ccc(O)cc2)NC(=O)[C@@H](N)CSSC[C@@H](C(=O)N2CCC[C@H]2C(=O)N[C@@H](CCCN=C(N)N)C(=O)NCC(N)=O)NC(=O)[C@H](CC(N)=O)NC1=O` [vasopressin], for which the “stimulation of renilla luminescence” value in experiment [5] (FIG. 2) was “did not stimulate renilla luminescence”. In addition, the “response curve after subsequent addition of renilla detection reagent” value in experiment [5] (renilla detection reagent added to the same cells) is “flattened”. The “luminescence signal following addition of renilla luciferase detection reagent” value in experiment [1] is “not significantly above basal”.
In the case of “thyro-calcitonin (CGNLSTCMLGTYTQDFNKFHTFPQTAIGVGAP; ends and bridges not checked; cysteine pairing not given here; UniProt P01258 85-116, looked up) [CHO cells express an endogenous calcitonin receptor]”, in experiment [3], the “action on CHO cells (conclusion)” value is listed as “act on CHO cells to generate an endogenous response”, the “firefly luciferase response (endogenous)” value is listed as “a firefly luciferase response was obtained” and the “luminescent signal following addition of renilla luciferase detection reagent (endogenous)” value was “A luminescent signal was maintained”.
